Data from US20110301142A1, “ANTAGONISTS OF LYSOPHOSPHATIDIC ACID RECEPTORS” (priority 2008, published 2011).
pIC50: −log10 of the molar value.

Molecular target: T1, human LPA1 (Homo sapiens, UniProt Q92633)
T1 construct: the full-length cDNA for human LPA1 was obtained by PCR of the reverse transcription reaction; expressed in transfected cells
Experiment: LPA1 calcium flux assay (HLPA1 Ca Flux)
Type: cell-based
Conditions: Human LPA1 expressing CHO cells, stimulated with 10 nM LPA
Procedure: A 1.1 kb cDNA encoding the human LPA1 receptor was cloned from human lung. Human lung RNA (Clontech Laboratories, Inc. USA) was reverse transcribed using the RETROscript kit (Ambion, Inc.) and the full-length cDNA for human LPA1 was obtained by PCR of the reverse transcription reaction. The nucleotide sequence of the cloned human LPA1 was determined by sequencing and confirmed to be identical to the published human LPA1 sequence (An et al. Biochem. Biophys. Res. Commun. 231:619 (1997). The cDNA was cloned into the pcDNAS/FRT expression plasmid and transfected in CHO cells using lipofectamine 2000 (Invitrogen Corp., USA). Clones stably expressing human LPA1 were selected using hygromycin and identified as cells that show Ca-influx in response to LPA.
Human LPA1 or LPA3 expressing CHO cells are seeded at 20,000-45,000 cells per well in a 96-well poly-D-lysine coated plate one or two days before the assay. Prior to the assay, the cells are washed once with PBS and then cultured in serum-free media overnight. On the day of the assay, a calcium indicator dye (Calcium 4, Molecular Devices) in assay buffer (HBSS with Ca^2+ and Mg^2+ and containing 20 mM Hepes and 0.3% fatty-acid free human serum albumin) is added to each well and incubation continued for 1 hour at 37° C. 10 μl of test compounds in 2.5% DMSO are added to the cells and incubation continued at room temperature for 30 minutes. Cells are the stimulated by the addition of 10 nM LPA and intracellular Ca^2+ measured using the Flexstation 3 (Molecular Devices). IC50s are determined using Graphpad prism analysis of drug titration curves.

T1 sequence (Q92633 whole entry): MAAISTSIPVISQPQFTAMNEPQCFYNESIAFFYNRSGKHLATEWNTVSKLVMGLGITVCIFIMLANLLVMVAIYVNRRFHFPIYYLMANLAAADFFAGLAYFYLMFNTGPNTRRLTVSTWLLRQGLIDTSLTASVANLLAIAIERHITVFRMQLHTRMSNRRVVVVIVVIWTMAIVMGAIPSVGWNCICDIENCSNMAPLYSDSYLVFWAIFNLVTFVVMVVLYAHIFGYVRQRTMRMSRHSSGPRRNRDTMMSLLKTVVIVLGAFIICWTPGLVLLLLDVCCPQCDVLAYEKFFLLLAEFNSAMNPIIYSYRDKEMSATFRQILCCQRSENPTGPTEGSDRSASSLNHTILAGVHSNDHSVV

Row | pIC50 | Compound
1 | 4.30 to 6.00 | Cc1noc(-c2ccc(Cc3cccc(C(=O)O)c3)cc2)c1NC(=O)OCc1ccccc1Br [Compound 1-6, 3-{4-[4-(2-Bromo-benzyloxycarbonylamino)-3-methyl-isoxazol-5-yl]-benzyl}-benzoic acid]
2 | 4.30 to 6.00 | Cc1noc(-c2ccc(-c3cccc(C(=O)O)c3)cc2)c1NC(=O)O[C@H](C)c1ccccn1 [Compound 1-11]
3 | 4.30 to 6.00 | Cc1cccc(COC(=O)Nc2c(C)noc2-c2ccc(-c3cccc(C(=O)O)c3)cc2)n1 [Compound 1-13, 4′-[3-Methyl-4-(6-methyl-pyridin-2-ylmethoxycarbonylamino)-isoxazol-5-yl]-biphenyl-3-carboxylic acid]
4 | 6.00 to 6.52 | Cc1noc(-c2ccc(Cc3cc(C(=O)O)ccc3Cl)cc2)c1NC(=O)OC(C)c1ccccc1Cl (centres unmarked) [Compound 1-14, 4-Chloro-3-(4-{4-[1-(2-chloro-phenyl)-ethoxycarbonylamino]-3-methyl-isoxazol-5-yl}-benzyl)-benzoic acid]
5 | < 4.30 | Cc1noc(-c2ccc(-c3cccc(C(=O)O)c3)cc2)c1NC(=O)OC1CCc2ccccc21 (centres unmarked) [Compound 1-16, 4′-[4-(Indan-1-yloxycarbonylamino)-3-methyl-isoxazol-5-yl]-biphenyl-3-carboxylic acid]
6 | > 6.52 | Cc1noc(-c2ccc(CSc3cccc(CC(=O)O)c3)cc2)c1NC(=O)OC(C)c1ccccc1Cl (centres unmarked) [Compound 1-18, [3-(4-{4-[1-(2-Chloro-phenyl)-ethoxycarbonylamino]-3-methyl-isoxazol-5-yl}-benzylsulfanyl)-phenyl]-acetic acid]
7 | > 6.52 | Cc1noc(-c2ccc(Cc3ccccc3CC(=O)O)cc2)c1NC(=O)OC(C)c1ccccc1Cl (centres unmarked) [Compound 1-22, [2-(4-{4-[1-(2-Chloro-phenyl)-ethoxycarbonylamino]-3-methyl-isoxazol-5-yl}-benzyl)-phenyl]-acetic acid]
8 | 6.00 to 6.52 | Cc1noc(-c2ccc(-c3ccc(CC(=O)O)cc3)cc2)c1NC(=O)OC(C)Cc1ccccc1 (centres unmarked) [Compound 1-29, {4′-[3-Methyl-4-(1-methyl-2-phenyl-ethoxycarbonylamino)-isoxazol-5-yl]-biphenyl-4-yl}-acetic acid]
9 | 6.00 to 6.52 | Cc1noc(-c2cccc(-c3ccccc3C(=O)O)c2)c1NC(=O)OC(C)c1ccccc1Cl (centres unmarked) [Compound 1-32, 3′-{4-[1-(2-Chloro-phenyl)-ethoxycarbonylamino]-3-methyl-isoxazol-5-yl}-biphenyl-2-carboxylic acid]
10 | 6.00 to 6.52 | Cc1noc(-c2cccc(-c3ccc(C(=O)O)nc3)c2)c1NC(=O)OC(C)c1ccccc1Cl (centres unmarked) [Compound 1-34, 5-(3-{4-[1-(2-Chloro-phenyl)-ethoxycarbonylamino]-3-methyl-isoxazol-5-yl}-phenyl)-pyridine-2-carboxylic acid]
11 | 6.00 to 6.52 | Cc1noc(-c2cccc(-c3cc(C(=O)O)ccn3)c2)c1NC(=O)OC(C)c1ccccc1Cl (centres unmarked) [Compound 1-35, 2-(3-{4-[1-(2-Chloro-phenyl)-ethoxycarbonylamino]-3-methyl-isoxazol-5-yl}-phenyl)-isonicotinic acid]
12 | 6.00 to 6.52 | Cc1noc(-c2cccc(-c3cccc(C(=O)O)n3)c2)c1NC(=O)OC(C)c1ccccc1Cl (centres unmarked) [Compound 1-36, 6-(3-{4-[1-(2-Chloro-phenyl)-ethoxycarbonylamino]-3-methyl-isoxazol-5-yl}-phenyl)-pyridine-2-carboxylic acid]
13 | 4.30 to 6.00 | Cc1noc(-c2cccc(-c3cncc(C(=O)O)c3)c2)c1NC(=O)OC(C)c1ccccc1Cl (centres unmarked) [Compound 1-37, 5-(3-{4-[1-(2-Chloro-phenyl)-ethoxycarbonylamino]-3-methyl-isoxazol-5-yl}-phenyl)-nicotinic acid]
14 | 4.30 to 6.00 | COc1ncc(CC(=O)O)cc1-c1cccc(-c2onc(C)c2NC(=O)OC(C)c2ccccc2Cl)c1 (centres unmarked) [Compound 1-38, [5-(3-{4-[1-(2-Chloro-phenyl)-ethoxycarbonylamino]-3-methyl-isoxazol-5-yl}-phenyl)-6-methoxy-pyridin-3-yl]acetic acid]
15 | 4.30 to 6.00 | Cc1noc(-c2cccc(-c3ccc(CC(=O)O)cc3)c2)c1NC(=O)OC(C)c1ccccc1Cl (centres unmarked) [Compound 1-39, (3′-{4-[1-(2-Chloro-phenyl)-ethoxycarbonylamino]-3-methyl-isoxazol-5-yl}-biphenyl-4-yl)-acetic acid]
16 | < 4.30 | Cc1noc(-c2cccc(-c3ccc4c(ccn4CC(=O)O)c3)c2)c1NC(=O)OC(C)c1ccccc1Cl (centres unmarked) [Compound 1-40, [5-(3-{4-[1-(2-Chloro-phenyl)-ethoxycarbonylamino]-3-methyl-isoxazol-5-yl}-phenyl)-indol-1-yl]-acetic acid]

Row | pIC50 | Compound
17 | 4.30 to 6.00 | Cc1noc(-c2cccc(-c3cncc(CC(=O)O)c3)c2)c1NC(=O)OC(C)c1ccccc1Cl (centres unmarked) [Compound 1-41, [5-(3-{4-[1-(2-Chloro-phenyl)-ethoxycarbonylamino]-3-methyl-isoxazol-5-yl}-phenyl)-pyridin-3-yl]acetic acid]
18 | 4.30 to 6.00 | Cc1noc(-c2cccc(-c3cc(CC(=O)O)ccc3F)c2)c1NC(=O)OC(C)c1ccccc1Cl (centres unmarked) [Compound 1-42, (3′-{4-[1-(2-Chloro-phenyl)-ethoxycarbonylamino]-3-methyl-isoxazol-5-yl}-6-fluoro-biphenyl-3-yl)-acetic acid]
19 | 4.30 to 6.00 | Cc1noc(-c2cccc(-c3ccc(F)c(CC(=O)O)c3)c2)c1NC(=O)OC(C)c1ccccc1Cl (centres unmarked) [Compound 1-43, (3′-{4-[1-(2-Chloro-phenyl)-ethoxycarbonylamino]-3-methyl-isoxazol-5-yl}-4-fluoro-biphenyl-3-yl)-acetic acid]
20 | 4.30 to 6.00 | Cc1noc(-c2cccc(-c3ccccc3CC(=O)O)c2)c1NC(=O)OC(C)c1ccccc1Cl (centres unmarked) [Compound 1-44, (3′-{4-[1-(2-Chloro-phenyl)-ethoxycarbonylamino]-3-methyl-isoxazol-5-yl}-biphenyl-2-yl)-acetic acid]
21 | > 6.52 | Cc1noc(-c2cccc(C3CCC(C(=O)O)CC3)c2)c1NC(=O)OC(C)c1ccccc1Cl (centres unmarked) [Compound 1-46, 4-(3-{4-[1-(2-Chloro-phenyl)-ethoxycarbonylamino]-3-methyl-isoxazol-5-yl}-phenyl)-cyclohexanecarboxylic acid]
22 | 6.00 to 6.52 | CCOC(=O)Cc1ccc(-c2ccc(-c3onc(C)c3NC(=O)OC(C)c3ccccc3F)cn2)cc1 (centres unmarked) [Compound 1-47]
23 | 4.30 to 6.00 | Cc1noc(-c2ccc(-c3ccccc3C(=O)O)cc2)c1NC(=O)OC(C)c1ccccc1Cl (centres unmarked) [Compound 1-52, 4′-{4-[1-(2-Chloro-phenyl)-ethoxycarbonylamino]-3-methyl-isoxazol-5-yl}-biphenyl-2-carboxylic acid]
24 | > 6.52 | Cc1noc(-c2ccc(-c3cncc(C(=O)O)c3)cc2)c1NC(=O)OC(C)c1ccccc1Cl (centres unmarked) [Compound 1-55, 5-(4-{4-[1-(2-Chloro-phenyl)-ethoxycarbonylamino]-3-methyl-isoxazol-5-yl}-phenyl)-nicotinic acid]
25 | > 6.52 | CCOC(=O)C(C)c1ccc(-c2ccc(-c3onc(C)c3NC(=O)OC(C)c3ccccc3Cl)cc2)cc1 (centres unmarked) [Compound 1-70, 2-(4′-{4-[1-(2-Chloro-phenyl)-ethoxycarbonylamino]-3-methyl-isoxazol-5-yl}-biphenyl-4-yl)-propionic acid ethyl ester]
26 | > 6.52 | Cc1noc(-c2ccc(-c3ccc(C(C)(C)C(=O)O)cc3)cc2)c1NC(=O)OC(C)c1ccccc1Cl (centres unmarked) [Compound 1-72, 2-(4′-{4-[1-(2-Chloro-phenyl)-ethoxycarbonylamino]-3-methyl-isoxazol-5-yl}-biphenyl-4-yl)-2-methyl-propionic acid]
27 | > 6.52 | Cc1noc(-c2ccc(-c3ccc(CC(=O)O)cc3)cn2)c1NC(=O)OC(C)c1ccccc1Cl (centres unmarked) [Compound 1-73]
28 | > 6.52 | Cc1noc(-c2ccc(-c3ccc(CCCC(=O)O)cc3)cc2)c1NC(=O)OC(C)c1ccccc1Cl (centres unmarked) [Compound 1-75, 4-(4′-{4-[1-(2-Chloro-phenyl)-ethoxycarbonylamino]-3-methyl-isoxazol-5-yl}-biphenyl-4-yl)-butyric acid]
29 | 6.00 to 6.52 | Cc1noc(-c2ccc(Cc3cc(CC(=O)O)ccc3F)cc2)c1NC(=O)O[C@H](C)c1ccccc1F [Compound 1-82, [4-Fluoro-3-(4-{4-[(R)-1-(2-fluoro-phenyl)-ethoxycarbonylamino]-3-methyl-isoxazol-5-yl}-benzyl)-phenyl]-acetic acid]
30 | 6.00 to 6.52 | CCOC(=O)Cc1ccc(Oc2ccc(-c3onc(C)c3NC(=O)O[C@H](C)c3ccccc3F)cc2)cc1 [Compound 1-83, [4-(4-{4-[(R)-1-(2-Fluoro-phenyl)-ethoxycarbonylamino]-3-methyl-isoxazol-5-yl}-phenoxy)-phenyl]-acetic acid ethyl ester]
31 | 4.30 to 6.00 | Cc1noc(-c2ccc(-c3ccc(CC(=O)O)cc3)cc2)c1NC(=O)OC(C)c1c(Cl)cccc1Cl (centres unmarked) [Compound 1-101, (4′-{4-[1-(2,6-Dichloro-phenyl)-ethoxycarbonylamino]-3-methyl-isoxazol-5-yl}-biphenyl-4-yl)-acetic acid]
32 | 4.30 to 6.00 | Cc1noc(-c2ccc(OCc3ccc(C(=O)O)cc3)cc2)c1NC(=O)O[C@H](C)c1ccccc1F [Compound 1-104, 4-(4-{4-[(R)-1-(2-Fluoro-phenyl)-ethoxycarbonylamino]-3-methyl-isoxazol-5-yl}-phenoxymethyl)-benzoic acid]
